This is an account of results in patent US9018383B2, “Acylamino-substituted cyclic carboxylic acid derivatives and their use as pharmaceuticals” (Sanofi, priority 2009, dated 2015).

One assay has as its target human Edg-2 receptor (Homo sapiens, UniProt Q92633). Nature of the assay: Determination of Edg-2 receptor inhibition by FLIPR measurements (LPA-mediated calcium liberation). It is filed as cell-based. Particulars: CHO cells overexpressing human Edg-2 receptor, LPA 100 nM, fluo-4 calcium fluorescence; read-out: Inhibitory concentrations IC50 for inhibition of the Edg-2 receptor. In a few lines:
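CHO cells stably overexpressing human Edg-2, loaded with fluo-4 AM, were pre-incubated ~5 min with compound (≤0.3% DMSO), then stimulated with 100 nM LPA 18:1 in HBSS/HEPES/probenecid, pH 7.5. Peak calcium fluorescence over ~3 min, baseline-corrected, versus DMSO gave % inhibition; IC50 from triplicates.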

Another assay has as its system bone metastasis. Particulars: in vivo; cited from earlier work.
Assay [1] relates to unilateral ureteral obstruction. Particulars: model of unilateral ureteral obstruction; cited from earlier work.
The subject of a further assay is mesangial cells. The settings on record: cited from earlier work.
The next assay deals with platelet activation. The settings on record: cited from earlier work.
In assay [2] the test system is vascular smooth muscle cells and endothelial cells. The settings on record: cited from earlier work.

human Edg-2 receptor, sequence (Q92633 whole entry): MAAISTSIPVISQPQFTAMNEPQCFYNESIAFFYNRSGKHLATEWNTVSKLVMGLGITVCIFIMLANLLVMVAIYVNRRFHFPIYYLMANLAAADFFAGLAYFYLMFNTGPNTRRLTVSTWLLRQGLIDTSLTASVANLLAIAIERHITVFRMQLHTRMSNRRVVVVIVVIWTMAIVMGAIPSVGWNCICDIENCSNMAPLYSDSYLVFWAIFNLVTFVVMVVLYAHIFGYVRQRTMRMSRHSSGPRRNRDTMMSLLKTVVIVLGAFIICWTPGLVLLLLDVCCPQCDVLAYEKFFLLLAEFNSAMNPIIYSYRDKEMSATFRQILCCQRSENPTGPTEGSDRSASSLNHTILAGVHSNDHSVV

As for `CC[C@H]1CC[C@](NC(=O)c2ccc(CCS(C)(=O)=O)c(OCCc3cccc(C)c3)c2)(C(=O)O)CC1` [Example 462, Cis-4-Ethyl-1-[4-(2-methanesulfonyl-ethyl)-3-(2-m-tolyl-ethoxy)-benzoylamino]-cyclohexanecarboxylic acid], the IC50 at human Edg-2 receptor lay within 100 to 1000 nM. Same read-out and setting: next, `CC[C@H]1CC[C@](NC(=O)c2cc3c(c(-c4ccc(OC)c(Cl)c4)c2)OC(F)(F)O3)(C(=O)O)CC1` [Example 463, Cis-1-{[7-(3-Chloro-4-methoxy-phenyl)-2,2-difluoro-benzo[1,3]dioxole-5-carbonyl]-amino}-4-ethyl-cyclohexanecarboxylic acid]: < 100 nM. In the case of `Cc1noc(-c2ccc(CSCCC(=O)O)cc2)c1NC(=O)OC(C)c1ccccc1Cl` (centres unmarked) [Ki16425], in the assay with bone metastasis, the “progression of bone metastasis” value is “reduced”. In addition, in assay [1], the renal injury entry is on record as “attenuated”.

Turning to “cis-1-{[5-(3-Chloro-4-methoxy-phenyl)-6-methoxy-pyridine-3-carbonyl]-amino}-4-ethyl-cyclohexanecarboxylic acid [Example 305]”, the IC50 at human Edg-2 receptor was < 100 nM. Regarding “dioctanoylglycerol pyrophosphate [DGPP(8:0)]”, the “LPA-induced proliferative response of mesangial cells” value in the assay with mesangial cells was “inhibited”. Also, in the assay with platelet activation, the “effects of LPA, moxLDL or lipid core extracts from human atherosclerotic plaques on platelet activation” value is listed as “abrogated”. Besides, the LPA-induced oxidative stress entry in assay [2] is on record as “attenuated”.
